From patent publication US20260150841A1, “PYRIDINE COMPOUNDS FOR COMBATTING DIHYDROOROTATE-DEHYDROGENASE INHIBITOR-RESISTANT PHYTOPATHOGENIC FUNGI” (priority 2022, published 2026)
Converted amounts (≈) assume the structure as drawn.

Experiments:
Assay type in all cases: cell-based
[1] = system: Botrytis cinerea mutant G111E; assay: Activity against Botrytis cinerea in the microtiter test, mutant G111E; details: Botrytis cinerea, MUTANTG111E, 168 h, read-out: Absolute IC50, G111E, Botrytis cinerea mutant G111E; turbidity at 620 nm after 7 days
Excerpt: (§1) The active substances were formulated separately as a stock solution in dimethyl sulfoxide (DMSO) at a concentration of 10 000 ppm.
(§2) Spontaneous mutants were selected by plating out B. cinerea spores (in the range of 10^7-10^8) on DOB agar plates (3.4 g/l YNB (Becton Dickinson), 10 g/l Ammoniumsulfat, 40 g/l Glucose, 20 g/l Agar), amended with different lethal concentrations of active ingredient. After 7-14 days growing colonies were transferred to DOB agar plates, amended with the same lethal concentrations of active ingredient and then further propagated on Oatmeal agar medium (50 g/l Oatmeal agar (Sigma), 15 g/l Agar (Difco) for sensitivity testing.
(§3) Fungal strains used: • a) Botrytis cinerea (sensitive, wild-type) • b) Various mutants of Botrytis cinerea
(§4) The spores of Botrytis cinerea were harvested with a cotton swab from an Oatmeal agar plate (50 g/l Oatmealagar (Sigma, Art.O-3506), 15 g/l agar, (Difco) and this is dipped in 3 ml of double concentrated DOB-medium (3.4 g/l YNB (Becton Dickinson), 10 g/l Ammoniumsulfat, 40 g/l Glucose, adjusted to pH 7) and the spore suspension is adjusted to a spore density of 3.2×10^4 spores/ml. The compound solutions were diluted from stock solution in (dimethylsulfoxide) DMSO in several steps with sterile deionized water before use. High test concentrations were 50 mg/L (ppm) or 31 mg/L (ppm). Compound solutions were transferred into empty microplates and filled up with an equal amount of spore suspension.
(§5) The antifungal activity was determined by measuring the turbidity of a culture in 96-well microplates in the presence of test compounds after 7 days incubation at 620 nm. A blank value for each concentration (growth media+compound, without spores) are subtracted from the spore suspension. The relative antifungal activity was calculated by comparing the effect of the test compounds with the effect of a DMSO control The results are shown in Table IV (for compounds of general formula I.A), VI (for compounds of general formula I.B), and VIII (for compounds of general formula I.C).
(§6) A compound showing an IC50 (MUT) above the IC50 (WT) and showing an IC50 (MUT) to IC50 (WT) ratio being in a range above 100 is considered unsuitable (“I”) as DHODH inhibitor.
(§7) The absolute IC50-values (concentration of test compound resulting in 50% inhibition of fungal growth) were calculated from the resulting dose-response for each compound and strain.

[2] = system: Botrytis cinerea mutant G111V; assay: Activity against Botrytis cinerea in the microtiter test, mutant G111V; details: Botrytis cinerea, MUTANTG111V, 168 h, read-out: Absolute IC50, G111V, Botrytis cinerea mutant G111V; turbidity at 620 nm after 7 days
Excerpt: as §1, §2, §3, §4, §5, §6, §7

[3] = system: Sclerotinia sclerotiorum (sensitive, wild-type); assay: Activity against Sclerotinia sclerotiorum in tissue culture plate assay with mycelial plugs, wild type; details: 168 h, % growth after 7 days at 18° C., read-out: Absolute IC50, wild type
Description: Fungal strains used: • a) Sclerotinia sclerotiorum (sensitive, wild-type) • b) Mutants of Sclerotinia sclerotiorum
Pure cultures are grown on DOB-agar medium, (3.4 g/l YNB (Becton Dickinson), 10 g/l Ammoniumsulfat, 40 g/l Glucose) for 5-7 days at 18° C. Mycelial plugs (6 mm diame-ter) taken from the margin of the colonies are used as inoculum for the sensitivity test. 500 μl fungicide-amended DOB medium (3.4 g/l YNB (Becton Dickinson), 10 g/l Ammoniumsulfat, 40 g/l Glucose, adjusted to pH 7) are added to each well of 24-well tissue culture plates. Each well is then inoculated with a mycelial plug, with the myce-lium surface up. Two replicate wells are used for each isolate and fungicide concentration. Growth is assed after 7 days incubation at 18° C. in the dark by estimating % growth in the well. IC50-values (concentration of test compound resulting in 50% inhibition of fungal growth) were calculated from the resulting dose-response for each compound and strain.

[4] = system: Botrytis cinerea mutant Y208H; assay: Activity against Botrytis cinerea in the microtiter test, mutant Y208H; details: Botrytis cinerea, MUTANTY208H, 168 h, read-out: Absolute IC50, Y208H, Botrytis cinerea mutant Y208H; turbidity at 620 nm after 7 days
Excerpt: as §1, §2, §3, §4, §5, §6, §7

[5] = system: Botrytis cinerea (sensitive, wild-type); assay: Activity against Botrytis cinerea in the microtiter test, wild type; details: 168 h, turbidity at 620 nm after 7 days, read-out: Absolute IC50, wild type
Description: as §1, §3, §4, §5, §7

[6] = system: Botrytis cinerea mutant H108P; assay: Activity against Botrytis cinerea in the microtiter test, mutant H108P; details: Botrytis cinerea, MUTANTH108P, 168 h, read-out: Absolute IC50, H108P, Botrytis cinerea mutant H108P; turbidity at 620 nm after 7 days
Excerpt: as §1, §2, §3, §4, §5, §6, §7

[7] = system: Botrytis cinerea mutant V195F; assay: Activity against Botrytis cinerea in the microtiter test, mutant V195F; details: Botrytis cinerea, MUTANTV195F, 168 h, read-out: Absolute IC50, V195F, Botrytis cinerea mutant V195F; turbidity at 620 nm after 7 days
Excerpt: as §1, §2, §3, §4, §5, §6, §7

SMILES	IC50 [1]	IC50 [2]	IC50 [3]	IC50 [4]	IC50 [5]	IC50 [6]	IC50 [7]
COc1ccc2c(c1)OC(C)(C)N=C2c1cnc(C(F)F)c(C)c1 [Ex-35]	2.7 mg/L (≈ 8.12 µM)	0.72 mg/L (≈ 2.17 µM)	0.468 mg/L (≈ 1.41 µM)	2.02 mg/L (≈ 6.08 µM)	0.02 mg/L (≈ 0.0602 µM)	0.29 mg/L (≈ 0.873 µM)	0.05 mg/L (≈ 0.15 µM)
Cc1cc(C2=NC(C)(C(C)(C)C)Oc3ccccc32)cnc1C(F)F (stereo not shown) [Ex-3]	2.81 mg/L (≈ 8.16 µM)	3.17 mg/L (≈ 9.2 µM)	0.893 mg/L (≈ 2.59 µM)	–	0.19 mg/L (≈ 0.552 µM)	2.54 mg/L (≈ 7.38 µM)	0.75 mg/L (≈ 2.18 µM)
